{
  "source": "patent US4691046A",
  "about": "“Butanedioic acid mono [(2-dimethylamino] ethyl ester)succinate” (Institut Organicheskoi Khimii Ordena Lenina I Ordena …, priority 1986, dated 1987)",
  "key": {"Succinatedehydrogenase": {"test_system": "Succinatedehydrogenase", "assay": "Activity of succinatedehydrogenase in myocardium upon low-temperature treatment", "type": "in vivo, mice", "settings": "2.5 hours at -14° C.; 80 mg/kg (invention) or 64 mg/kg (ester); control 72.3 ± 1.6", "protocol": "(§2) The preparations were administered one hour before the standard low-temperature treatment (-14° C.) in doses of 80 mg/kg of the compound according to the present invention and 64 mg/kg of the prior art compound-butanedioic acid mono[(2-dimethylamino)-ethyl ester]."}, "[1]": {"assay": "Survival of mice on acute cooling", "type": "in vivo", "procedure": "The activity of the compound according to the present invention was studied in experiments on animals. The effectivemess of the compound according to the present invention was studied for resistance against an acute cold effect in comparison with conventional preparations such as butanedioic acid mono[(2-dimethylamino)ethyl ester] and sodium succinate.\nThe experiments were carried out on male mice (tetrahybdrids) with a body mass of 18-20 g which were placed into a cold chamber at a temperature of -15t to -17° C. in separate plastic cages slightly limiting their activity. […] The preparations were administered intraperiotoneally 1 hour before the cold effect the control animals were administered with a physiological solution."}, "[2]": {"assay": "Blood glucose and organ glycogen upon predetermined (2.5 h) cold treatment (adaptation experiment)", "type": "in vivo, mice", "settings": "2.5 h at -14° C.; for Glycogen, heart: control 1.7 ± 0.2; for Glycogen, liver: control 6.7 ± 0.4; for Blood glucose: control 37 ± 6", "procedure": "(§1) To elucidate the effect of the compound according to the present invention on the adaptation phenomenon, experiments on male mice with a body mass of 18-20 g were carried out in conformity with the Le Blanc procedure according to which the mice were placed into a cold chamber (at -17° C.) for 10 minutes ever hour over the period of 9-10 hours. After one day the maximum lifespan of the mice at -17° C. was assessed along with the content of glucose in blood and of glycogen in organs upon a predetermined cold treatment (2.5 hours a -14° C.). The compound according to the present invention and butanedioic acid mono[(2-dimethylamino)-ethyl ester] (in doses of 80 and 64 mg/kg respectively) were introduced immediately after a series of short-time cold effects. In a number of experiments the compound according to the present invention was administered 1 hour prior to the testing (2.5 h) cold effect."}, "Glutamatedehydrogenase": {"test_system": "Glutamatedehydrogenase", "assay": "Activity of glutamatedehydrogenase in myocardium upon low-temperature treatment", "type": "in vivo, mice", "settings": "2.5 hours at -14° C.; 80 mg/kg (invention) or 64 mg/kg (ester); control 68.8 ± 1.5", "protocol": "as §2"}, "[3]": {"assay": "Stresso-protective activity, motion stress in slowly rotating drum for 48 hours", "type": "in vivo, rats", "settings": "48 h motion stress", "procedure": "In evaluation of the stresso-protective activity of the compound according to the present invention as a model use was made of a procedure of depriving rats of sleep, meals and water in a slowly rotating drum (at the speed of 0.2 km/h).\nThe experiments were carried out on 42 nondescript male rats. In parallel experiments the antistress activity of butanedioic acid mono[(2-dimethylamino)ethyl ester] was studied; as the reference prepartion use was made of the prior art tranquilizer--diazepam which was used in the experiments for this very indication.\n4 groups of animals were tested in parallel. Groups I and II were placed for 48 hours into a slowly rotating drum, groups III and IV were under normal conditions and were deprived only of meals and water. The compound according to the present invention and butanedioic acid mono[(2-dimethylamino)ethyl ester] were administered intraperitoneally in the dose of 10 mg/kg four times (2 times a day) in the volume of 2.5 ml/kg under the conditions of motion stress (Group I of the animals) and under normal conditions (Group III of animals). The control animals--Group II (active control) and Group IV (passive control) were given a physiological solution. The efficiency of the compound according to the present invention, of butanedioic acid mono[(2-dimethylamino)ethyl ester] and of diazepam was estimated on the basis of a set of characteristics showing the functional activity of the central nervous system, physical fitness and development of basic symptoms of the stress-syndrome.\nThe residence of control rats in a slowly-rotating drum over 48 hours results in a noticeable deterioration of all the studied characteristics, especially those of higher nervous activity (learning) and development of stress-syndrome. The state of control animals was characterized by lowering of the overall behavioural activity as determined by the \"open-field\" test (37±15%) with reference to the passive control level, by a reduction in the speed of development of a conventional avoiding response in an aqueous labyrinth (58±15%), by an increase in the number of mistakes during the teaching time (175±25%), lowering of the ultimate physical endurance as determined by the swimming-with-load test (the load is equal to 10% by mass of the body (70±17%), adrenal hypertrophy (146±16%), thymus atrophy (49±9%) and formation of ulcers on the stomach mucous membrane (5.25±1.0%)."}, "Isocitratedehydrogenase": {"test_system": "Isocitratedehydrogenase", "assay": "Activity of isocitratedehydrogenase in myocardium upon low-temperature treatment", "type": "in vivo, mice", "settings": "2.5 hours at -14° C.; 80 mg/kg (invention) or 64 mg/kg (ester); control 49.5 ± 1.2", "protocol": "as §2"}, "[4]": {"test_system": "NAD-Ph--H2 --dehydrogenase", "assay": "Activity of NAD-Ph-H2-dehydrogenase in myocardium upon low-temperature treatment", "type": "in vivo, mice", "settings": "2.5 hours at -14° C.; 80 mg/kg (invention) or 64 mg/kg (ester); control 72.1 ± 1.4", "protocol": "as §2"}, "NADH2 --dehydrogenase": {"test_system": "NADH2 --dehydrogenase", "assay": "Activity of NADH2-dehydrogenase in myocardium upon low-temperature treatment", "type": "in vivo, mice", "settings": "2.5 hours at -14° C.; 80 mg/kg (invention) or 64 mg/kg (ester); control 69.8 ± 1.5", "protocol": "as §2"}, "[5]": {"test_system": "Glucose-6-phosphatedehydrogenase", "assay": "Activity of glucose-6-phosphatedehydrogenase in myocardium upon low-temperature treatment", "type": "in vivo, mice", "settings": "2.5 hours at -14° C.; 80 mg/kg (invention) or 64 mg/kg (ester); control 57.3 ± 1.3", "protocol": "as §2"}, "[6]": {"assay": "Maximum duration of mice lifespan upon testing cold treatment (Le Blanc adaptation procedure)", "type": "in vivo", "procedure": "as §1"}, "Pyruvatedehydrogenase": {"test_system": "Pyruvatedehydrogenase", "assay": "Activity of pyruvatedehydrogenase in myocardium upon low-temperature treatment", "type": "in vivo, mice", "settings": "2.5 hours at -14° C.; 80 mg/kg (invention) or 64 mg/kg (ester); control 56.6 ± 1.1", "protocol": "as §2"}, "[7]": {"assay": "Biochemical substrates in mice upon preset (2.5 hours) low-temperature treatment", "settings": "2.5 hours at -14° C.", "protocol": "as §2"}, "[8]": {"settings": "adaptation + preparation 1 hour before the testing effect"}, "[9]": {"settings": "adaptation + preparation immediately after adaptation, 80 mg/kg (invention) or 64 mg/kg (ester)"}},
  "data": [
    {"compound": "CN(C)CCOC(=O)CCC(=O)O", "note": "[Compound of this invention, butanedioic acid mono[(2-dimethylamino)ethyl ester]succinate]", "values": [
      {"measurement": "Activity of succinatedehydrogenase in myocardium", "setting": "Succinatedehydrogenase", "result": "90.2 ± 1.8", "unit": "relative units"},
      {"measurement": "Survival, %, 1 hour", "setting": "[1]; 1 hour of cold at -15 to -17° C., i.p. 1 hour before, 80 mg/kg (invention), 64 mg/kg (ester), 17 mg/kg (sodium succinate)", "result": 100, "unit": "%"},
      {"measurement": "Survival, %, 2 hours", "setting": "[1]; 2 hours of cold at -15 to -17° C., i.p. 1 hour before, 80 mg/kg (invention), 64 mg/kg (ester), 17 mg/kg (sodium succinate)", "result": 100, "unit": "%"},
      {"measurement": "Survival, %, 3 hours", "setting": "[1]; 3 hours of cold at -15 to -17° C., i.p. 1 hour before, 80 mg/kg (invention), 64 mg/kg (ester), 17 mg/kg (sodium succinate)", "result": 100, "unit": "%"},
      {"measurement": "Survival, %, 4 hours", "setting": "[1]; 4 hours of cold at -15 to -17° C., i.p. 1 hour before, 80 mg/kg (invention), 64 mg/kg (ester), 17 mg/kg (sodium succinate)", "result": 90, "unit": "%"},
      {"measurement": "Survival, %, 5 hours", "setting": "[1]; 5 hours of cold at -15 to -17° C., i.p. 1 hour before, 80 mg/kg (invention), 64 mg/kg (ester), 17 mg/kg (sodium succinate)", "result": 70, "unit": "%"},
      {"measurement": "Survival, %, 6 hours", "setting": "[1]; 6 hours of cold at -15 to -17° C., i.p. 1 hour before, 80 mg/kg (invention), 64 mg/kg (ester), 17 mg/kg (sodium succinate)", "result": 70, "unit": "%"},
      {"measurement": "protective effect on survival at high dose", "setting": "[1]; doses above 300 mg/kg", "result": "less pronounced"},
      {"measurement": "Glycogen, heart", "setting": "[2]; [8]", "result": "2.6 ± 0.4", "unit": "mg/g"},
      {"measurement": "Glycogen, liver", "setting": "[2]; [8]", "result": "11.7 ± 2.4", "unit": "mg/g"},
      {"measurement": "Blood glucose", "setting": "[2]; [8]", "result": "78 ± 6", "unit": "mg. %"},
      {"measurement": "Glycogen, heart", "setting": "[2]; [9]", "result": "2.9 ± 0.2", "unit": "mg/g"},
      {"measurement": "Glycogen, liver", "setting": "[2]; [9]", "result": "18.2 ± 2.1", "unit": "mg/g"},
      {"measurement": "Blood glucose", "setting": "[2]; [9]", "result": "88 ± 2", "unit": "mg. %"},
      {"measurement": "Activity of glutamatedehydrogenase in myocardium", "setting": "Glutamatedehydrogenase", "result": "78.3 ± 1.7", "unit": "relative units"},
      {"measurement": "formation of ulcers on the stomach mucous membrane", "setting": "[3]", "result": "4.8±1.5", "unit": "%"},
      {"measurement": "general behavioural activity compared with diazepam", "setting": "[3]; in words", "result": "substantially higher general behavioural activity"},
      {"measurement": "Weight coefficient of thymus", "setting": "[3]; 10 mg/kg i.p. four times (invention, ester), control 0.95 ± 0.18, listed as compound of the present invention, 10 mg/kg", "result": "1.25 g/kg of the initial body mass"},
      {"measurement": "Weight coefficient of adrenal glands", "setting": "[3]; 10 mg/kg i.p. four times (invention, ester), control 1.246 ± 0.028, listed as compound of the present invention, 10 mg/kg", "result": "1.83 g/kg of the initial body mass"},
      {"measurement": "Number of attempts till reaching the learning criterion (water labyrinth)", "setting": "[3]; 10 mg/kg i.p. four times (invention, ester), control 4.75 ± 0.5, listed as compound of the present invention, 10 mg/kg", "result": 2.75},
      {"measurement": "Number of ulcers on the stomach mucous membrane", "setting": "[3]; 10 mg/kg i.p. four times (invention, ester), control 5.25 ± 1.0, listed as compound of the present invention, 10 mg/kg", "result": 2.5},
      {"measurement": "Duration of swimming", "setting": "[3]; 10 mg/kg i.p. four times (invention, ester), control 244 ± 26, listed as compound of the present invention, 10 mg/kg", "result": 499, "unit": "s"},
      {"measurement": "total behavioural activity", "setting": "[3]; open-field test, stressed control 37±15% of passive control", "result": "85±10", "unit": "%"},
      {"measurement": "higher nervous activity (protection)", "setting": "[3]; stressed control 58±15% (avoiding response, aqueous labyrinth)", "result": "100±9", "unit": "%"},
      {"measurement": "physical endurance", "setting": "[3]; swimming-with-load test, stressed control 70±17%", "result": "143±28", "unit": "%"},
      {"measurement": "Activity of isocitratedehydrogenase in myocardium", "setting": "Isocitratedehydrogenase", "result": "60.4 ± 1.6", "unit": "relative units"},
      {"measurement": "Activity of NAD-Ph-H2-dehydrogenase in myocardium", "setting": "[4]", "result": "85.9 ± 1.7", "unit": "relative units"},
      {"measurement": "Activity of NADH2-dehydrogenase in myocardium", "setting": "NADH2 --dehydrogenase", "result": "73.4 ± 2.0", "unit": "relative units"},
      {"measurement": "Activity of glucose-6-phosphatedehydrogenase in myocardium", "setting": "[5]", "result": "67.4 ± 1.5", "unit": "relative units"},
      {"measurement": "Lifespan in hours (at -17° C.), preparation without adaptation", "setting": "[6]; no adaptation, intact animals 3.4 ± 0.4", "result": "7.8 ± 0.3", "unit": "h"},
      {"measurement": "Lifespan in hours (at -17° C.), preliminary adaptation + preparation", "setting": "[6]; with preliminary adaptation, 80 mg/kg (invention) or 64 mg/kg (ester), adaptation alone 6.0 ± 0.3, listed as compound of the present invention", "result": "10.3 ± 0.6", "unit": "h"},
      {"measurement": "Activity of pyruvatedehydrogenase in myocardium", "setting": "Pyruvatedehydrogenase", "result": "68.9 ± 1.3", "unit": "relative units"},
      {"measurement": "Liver glycogen", "setting": "[7]; 1 hour after 80 mg/kg (invention) or 64 mg/kg (ester), control 8.1 ± 0.6, intact 35.2 ± 4.5", "result": "9.8 ± 1.2", "unit": "mg/kg"},
      {"measurement": "Blood glucose", "setting": "[7]; 1 hour after 80 mg/kg (invention) or 64 mg/kg (ester), control 42 ± 4, intact 79 ± 3", "result": "80 ± 4", "unit": "mg. %"},
      {"measurement": "Creatine phosphate", "setting": "[7]; myocardium, 1 hour after 80 mg/kg (invention) or 64 mg/kg (ester), control 1.2 ± 0.08, intact 3.7 ± 0.3", "result": "2.3 ± 0.1", "unit": "μm/g"},
      {"measurement": "Adenosine monophosphate", "setting": "[7]; myocardium, 1 hour after 80 mg/kg, control 0.45 ± 0.01, intact 0.51 ± 0.03", "result": "0.32 ± 0.02", "unit": "μm/g"},
      {"measurement": "Adenosine diphosphate", "setting": "[7]; myocardium, 1 hour after 80 mg/kg, control 0.49 ± 0.02, intact 0.78 ± 0.03", "result": "0.86 ± 0.04", "unit": "μm/g"},
      {"measurement": "Adenosine triphosphoric acid", "setting": "[7]; myocardium, 1 hour after 80 mg/kg, control 1.5 ± 0.1, intact 2.2 ± 0.3", "result": "1.9 ± 0.2", "unit": "μm/g"}
    ]}
  ]
}
